Patent US7259003B2, “Escherichia bacteria transformed with a yedA homolog to enhance L-amino acid producing activity, and methods for producing an L-amino acid using same” (priority 2001, dated 2007)

Tests used:
Type in all cases: cell-based
Conditions in all cases: 37° C.
[1] = system: E. coli strain TG1 (pUC19); experiment: Growth of E. coli TG1 (pUC19) on M9 glucose minimal agar containing amino acids and amino acid analogs
Experimental: (§1) The pYEDA1 and pYEDA2 plasmids and the pUC19 and pAYCTER3 vectors were introduced into E. coli strain TG1. Thus the strains TG1 (pYEDA1), TG1 (pYEDA2), TG1 (pUC19) and TG1 (pAYCTER3) were obtained.
(§2) Then the ability of these strains to grow in the presence of amino acids and amino acid analogues for each strain were determined on M9 glucose minimal agar plates containing graded concentrations of inhibitor. The plates were spotted with 10^6 to 10^7 cells from an overnight culture grown in a minimal medium (supplemented with 100 μg/ml of ampicillin for plasmid strains). The growth was estimated after 44 h incubation at 37° C.

[2] = system: E. coli strain TG1 (pYEDA1); experiment: Growth of E. coli TG1 (pYEDA1) on M9 glucose minimal agar containing amino acids and amino acid analogs
Experimental: as §1, §2

[3] = system: E. coli strain TG1 (pYEDA2); experiment: Growth of E. coli TG1 (pYEDA2) on M9 glucose minimal agar containing amino acids and amino acid analogs
Experimental: as §1, §2
Further: key: +: good growth; −: no growth.

With `NC(Cc1ccc(F)cc1)C(=O)O` (racemic) [p-fluoro-DL-phenylalanine] the “Growth after 44 h TG1 (pUC19)” value ([1]; substrate 1.0 mg/ml) was “−”, the “Growth after 44 h TG1 (pUC19)” value ([1]; substrate 2.0 mg/ml) was “−” and the “Growth after 44 h TG1 (pYEDA1)” value ([2]; substrate 1.0 mg/ml) was “+”. For the same compound, the “Growth after 44 h TG1 (pYEDA1)” value ([2]; substrate 2.0 mg/ml) was “+”, the “Growth after 44 h TG1 (pYEDA2)” value ([3]; substrate 1.0 mg/ml) was “+” and the “Growth after 44 h TG1 (pYEDA2)” value ([3]; substrate 2.0 mg/ml) was “−”.
For `NC(Cc1c[nH]c2ccc(F)cc12)C(=O)O` (racemic) [5-fluoro-DL-tryptophane], the “Growth after 44 h TG1 (pUC19)” value ([1]; substrate 0.0005 mg/ml) was “−” and the “Growth after 44 h TG1 (pYEDA1)” value ([2]; substrate 0.0005 mg/ml) was “+”.
For `N[C@@H](CCO)C(=O)O` [L-homoserine], the “Growth after 44 h TG1 (pUC19)” value ([1]; substrate 3.0 mg/ml) was “−” and the “Growth after 44 h TG1 (pYEDA1)” value ([2]; substrate 3.0 mg/ml) was “+”.
With `N[C@@H](Cc1c[nH]cn1)C(=O)O` [L-histidine] the “Growth after 44 h TG1 (pUC19)” value ([1]; substrate 20.0 mg/ml) was “−” and the “Growth after 44 h TG1 (pYEDA1)” value ([2]; substrate 20.0 mg/ml) was “+”.
With `CN(C)CC(N)C(=O)O` (racemic) [4-aza-DL-leucine] the “Growth after 44 h TG1 (pUC19)” value ([1]; substrate 1.0 mg/ml) was “−” and the “Growth after 44 h TG1 (pYEDA1)” value ([2]; substrate 1.0 mg/ml) was “+”.
For `N[C@@H](Cc1ccccc1)C(=O)O` [L-phenylalanine], the “Growth after 44 h TG1 (pUC19)” value ([1]; substrate 20.0 mg/ml) was “−”, the “Growth after 44 h TG1 (pYEDA1)” value ([2]; substrate 20.0 mg/ml) was “+” and the “Growth after 44 h TG1 (pYEDA2)” value ([3]; substrate 20.0 mg/ml) was “−”.
`C[C@@H](O)[C@H](N)C(=O)O` [L-threonine] was tested, and the “Growth after 44 h TG1 (pUC19)” value ([1]; substrate 50.0 mg/ml) was “−” and the “Growth after 44 h TG1 (pYEDA1)” value ([2]; substrate 50.0 mg/ml) was “+”.
`NCCSC[C@H](N)C(=O)O` [S(2-aminoethyl)-L-cysteine] was tested, and the “Growth after 44 h TG1 (pUC19)” value ([1]; substrate 0.4 mg/ml) was “−”, the “Growth after 44 h TG1 (pYEDA1)” value ([2]; substrate 0.4 mg/ml) was “+” and the “Growth after 44 h TG1 (pYEDA2)” value ([3]; substrate 0.4 mg/ml) was “+”.
In the case of `N[C@@H](CS)C(=O)O` [L-cysteine], the “Growth after 44 h TG1 (pUC19)” value ([1]; substrate 7.5 mg/ml) was “−” and the “Growth after 44 h TG1 (pYEDA1)” value ([2]; substrate 7.5 mg/ml) was “+”.
